What was measured:
CA = CA (Human immunodeficiency virus type 1 group M subtype B, UniProt P12493); assay: mass action calculation of CAP-1 bound to CA/Gag in immature virions; design: species or system HIV-1
Experimental: This is likely due to the high local concentration of Gag molecules in assembled virions (14 mM), which favors binding by ligands with even modest affinities, e.g., N-(3-chloro-4-methylphenyl)-N′-[2-[([5-[(dimethylamino)-methyl]-2-furyl]-methyl)-sulfanyl]ethyl]urea (CAP-1).
Thus conservatively assuming that cytosolic drug concentrations in the budding virus and cells are equal (100 μM), the percentage of viral CAP-1 molecules bound to CA can be estimated by standard mass action calculations which affords a value for the concentration of bound CAP-1 ([CA:CAP-1]) of 94 μM.

HIV-1 capsid protein = molecular target: T1, HIV-1 capsid protein (Human immunodeficiency virus type 1 group M subtype B, UniProt P12493); assay: biochemical; format: binding
T1 construct: aqueous solutions containing recombinant, ^15N-labeled HIV-1 capsid protein
Experimental: Capsid protein ligands are also evaluated by NMR to determine their equilibrium dissociation constant from the capsid binding site.
Concentrated DMSO-d6 solutions of test compounds are prepared for NMR analysis. 2D ^1H-^15N HSQC NMR spectra are obtained for aqueous solutions containing recombinant, ^15N-labeled HIV-1 capsid protein and 10 microliters of added test compound. Data is obtained using a 600 MHz NMR instrument equipped with a cryoprobe. […] Binding is indicated by perturbation relative to capsid protein alone (^1HN δδ>0.1 ppm; ^15N δδ>0.5 ppm) of the chemical shifts of the following residues: Glu29, Lys30, Ala31, Phe32, Ser33, Glu35, Val36, Val59, Gly60, Gly61, His62, Gln63, Ala65, Met144 and Tyr145, all located at or near the apex of a helical bundle (helices 1, 2, 3, 4 and 7).
Equilibrium dissociation constants are calculated from 2D NMR data of selected capsid ligands. […] The chemical shift changes of perturbed by test compound binding are fit to 1:1 binding isotherms.

With Cc1ccc(NC(=O)NCCSCc2ccc(CN(C)C)o2)cc1Cl [CAP-1, N-(3-chloro-4-methylphenyl)-N′-[2-[([5-[(dimethylamino)-methyl]-2-furyl]-methyl)-sulfanyl]ethyl]urea] as the molecule, how does the “CAP-1 molecules in immature virions bound to Gag” value (CA; 100 μM dose) read?
The value was 94%.

And the “concentration of bound CAP-1 ([CA:CAP-1])” value (CA; assuming drug concentration 100 μM, Gag in assembled virions 14 mM)?
The value was 94 µM.

What about the Kd (HIV-1 capsid protein) of the same molecule?
Its Kd is 820 ± 180 µM.

What about the “binding to the HIV-1 capsid protein (HSQC chemical shift perturbation)” value (HIV-1 capsid protein; recombinant 15N-labeled HIV-1 capsid protein) of the same molecule?
The value was “site-specific binding”.
